The values that follow come from patent publication US20220380370A1 (Goldfinch Bio, Inc., priority 2019, published 2022).

Broadly, the IC50 is the point on the concentration scale where inhibition reaches its midpoint. Low readings indicate greater potency, high ones weaker potency.

Where only a bound is given, the exact number is not on record here.

T1 sequence (P21554 whole entry): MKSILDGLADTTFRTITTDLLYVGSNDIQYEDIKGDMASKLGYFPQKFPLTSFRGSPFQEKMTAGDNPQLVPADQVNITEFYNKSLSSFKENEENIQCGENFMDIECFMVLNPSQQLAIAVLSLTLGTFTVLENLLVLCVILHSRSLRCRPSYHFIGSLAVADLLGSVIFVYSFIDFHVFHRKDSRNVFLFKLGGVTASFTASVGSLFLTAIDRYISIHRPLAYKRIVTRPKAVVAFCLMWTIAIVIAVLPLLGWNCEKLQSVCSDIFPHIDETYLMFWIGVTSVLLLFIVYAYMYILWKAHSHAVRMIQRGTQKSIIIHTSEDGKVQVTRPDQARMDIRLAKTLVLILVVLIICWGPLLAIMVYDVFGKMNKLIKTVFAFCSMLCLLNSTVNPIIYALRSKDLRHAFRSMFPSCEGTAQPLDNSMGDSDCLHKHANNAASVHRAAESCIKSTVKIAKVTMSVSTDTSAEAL

This assay addresses T1, CB1 receptor (Homo sapiens, UniProt P21554).
T1 construct: Perkin Elmer (CB1-CHO cells); host or cells: Flp-In CHO cells or CB1-CHO cells, stably expressing
Kind of assay: CB1 cAMP antagonist assay (LANCE Ultra cAMP kit). The assay is classed as cell-based. The settings on record: CHO cells stably expressing the CB1 receptor; forskolin and agonist CP55940 at EC90. An excerpt:
LANCE Ultra cAMP kit (Perkin Elmer) was used to quantitate the amount of 3′,5′-cyclic adenosine monophosphate (cAMP) produced in Flp-In CHO cells (Invitrogen) stably expressing the CB1 receptor, CB1-CHO cells (Perkin Elmer) stably expressing the CB1 receptor, or CB2-CHO cells (Perkin Elmer) stably expressing the CB2 receptor.
Forskolin was initially titrated to determine the response of the cells. The EC90 of forskolin was used for compound testing. CP55940 was titrated and used with EC90 of forskolin to determine the level of agonist stimulation. EC90 of the agonist was used for subsequent compound testing. For the CB1 assay, Forskolin (Sigma), CP55940 (Cayman Chemicals), and AM251 (MCE) were diluted in 100% DMSO, starting at 100 mM, 1 mM, and 1 mM respectively, in 3-fold serial dilutions. For the CB2 assay, Forskolin (Sigma), CP55940 (Cayman Chemicals), and AM630 (MCE) were diluted in 100% DMSO, starting at 100 mM, 1 mM, and 30 mM respectively, in 3-fold serial dilutions. Test compounds were diluted in 100% DMSO starting from 10 mM, 3-fold dilutions. The cAMP assay buffer contains 1× Hank's Buffered Saline Solution with Ca^2+ and Mg^2+ (Invitrogen), 5.3 mM HEPES (Invitrogen), 0.05% BSA, 0.5 mM IBMX (Sigma). For all assays, cells were harvested, counted, and diluted in cAMP assay buffer to 1×10^5 cells/mL. Only cells with viability >85% were used for the assay. Cells were seeded at 1000 cells/well in 384-well plates and 10 nL/well AM251 (for CB1), AM630 (for CB2) or test compound was added and incubated at 37° C. for 10 min. Then forskolin and agonist were added to reach their EC90 and incubated at 25° C. for 30 min. To detect the amount of cAMP produced, 5 μL of a 100× diluted stock of Eu-cAMP tracer and 5 μL of 200× diluted stock of Ulight-anti-cAMP were added to each well, and the plate incubated at 25° C. for 15 min. The FRET signal was read using an EnVision microplate reader (λex=320 nm, λem=615 nm and 665 nm). The results are expressed as % Inhibition, where % inhibition=100−100×(U−C2)/(C1−C2), where U is the FRET ratio (λem (665 nm)/λem (615 nm)) of sample, C1 is the average of the high controls (signal with no antagonist added), and C2 is the average of low controls (signal with the highest concentration of AM251 or AM630 antagonist). The IC50 is determined by fitting the percentage of inhibition as a function of compound concentrations with the Hill equation, using a 4-parameter fit in either XLfit or GraphPad Prism.
Background: TR-FRET usually uses a lanthanide donor and a delayed reading to cut background.
As to `NC(=O)Cn1c(=O)c2c(nc(-c3ccccc3Cl)n2-c2ccc(Cl)cc2)n(CC2COCCO2)c1=O` (racemic) [Compound 124, 2-[8-(2-chlorophenyl)-7-(4-chlorophenyl)-3-(1,4-dioxan-2-ylmethyl)-2,6-dioxopurin-1-yl]acetamide], the IC50 is less than 0.1 µM.

In turn, `NC(=O)Cn1c(=O)c2c(nc(-c3ccccc3Cl)n2-c2ccc(Cl)cc2)n(CC2COCCO2)c1=O` (stereo in doubt) [Compound 127, 2-[8-(2-chlorophenyl)-7-(4-chlorophenyl)-3-[(2R)-1,4-dioxan-2-ylmethyl]-2,6-dioxopurin-1-yl]acetamide] gave an IC50 of 0.1 to 1 µM.

On to `NC(=O)Cn1c(=O)c2c(nc(-c3ccccc3Cl)n2-c2ccc(Cl)cc2)n(CC2COCCO2)c1=O` (stereo in doubt) [Compound 128, 2-[8-(2-chlorophenyl)-7-(4-chlorophenyl)-3-[(2S)-1,4-dioxan-2-ylmethyl]-2,6-dioxopurin-1-yl]acetamide], for which the IC50 lay in the range of 0.1 to 1 µM.

In the case of `CC(c1ccc(C(=O)NCCO)cc1)n1c(=O)n(C)c(=O)c2c1nc(-c1ccccc1Cl)n2-c1ccc(Cl)cc1` (stereo in doubt) [Compound 134, 4-[(1R)-1-[8-(2-chlorophenyl)-7-(4-chlorophenyl)-1-methyl-2,6-dioxopurin-3-yl]ethyl]-N-(2-hydroxyethyl)benzamide], the IC50 lay within 0.1 to 1 µM.

In the case of `CC(C(N)=O)n1c(=O)c2c(nc(-c3ccccc3Cl)n2-c2ccc(Cl)cc2)n(C2CCOCC2)c1=O` (stereo in doubt) [Compound 138, (2R)-2-[8-(2-chlorophenyl)-7-(4-chlorophenyl)-3-(oxan-4-yl)-2,6-dioxopurin-1-yl]propanamide], the IC50 lay in the range of 0.1 to 1 µM.

The compound `CC(C(N)=O)n1c(=O)c2c(nc(-c3ccccc3Cl)n2-c2ccc(Cl)cc2)n(CC2CCOCC2)c1=O` (stereo in doubt) [Compound 140, (2S)-2-[8-(2-chlorophenyl)-7-(4-chlorophenyl)-3-(oxan-4-ylmethyl)-2,6-dioxopurin-1-yl]propanamide] yielded an IC50 of less than 0.1 µM.

Regarding `CC(C(N)=O)n1c(=O)c2c(nc(-c3ccccc3Cl)n2-c2ccc(Cl)cc2)n(CC2CCS(=O)(=O)CC2)c1=O` (stereo in doubt) [Compound 142, (2S)-2-[8-(2-chlorophenyl)-7-(4-chlorophenyl)-3-[(1,1-dioxo-1 lambda6-thian-4-yl)methyl]-2,6-dioxopurin-1-yl]propanamide], the IC50 is less than 0.1 µM.

Regarding `CC(C(N)=O)n1c(=O)c2c(nc(-c3ccccc3Cl)n2-c2ccc(Cl)cc2)n(CC2CCS(=O)(=O)CC2)c1=O` (stereo in doubt) [Compound 144, (2R)-2-[8-(2-chlorophenyl)-7-(4-chlorophenyl)-3-[(1,1-dioxo-1 lambda6-thian-4-yl)methyl]-2,6-dioxopurin-1-yl]propanamide], the IC50 is less than 0.1 µM.

Regarding `NC(=O)Cn1c(=O)c2c(nc(-c3ccccc3Cl)n2-c2ccc(Cl)cc2)n(Cc2ccc(CC(O)CO)cc2)c1=O` (stereo in doubt) [Compound 146, 2-[8-(2-chlorophenyl)-7-(4-chlorophenyl)-3-([4-[(2S)-2,3-dihydroxypropyl]phenyl]methyl)-2,6-dioxopurin-1-yl]acetamide], the IC50 was in the range of 0.1 to 1 µM.

Compound `NC(=O)Cn1c(=O)c2c(nc(-c3ccccc3Cl)n2-c2ccc(Cl)cc2)n(Cc2ccc(CC(O)CO)cc2)c1=O` (stereo in doubt) [Compound 148, 2-[8-(2-chlorophenyl)-7-(4-chlorophenyl)-3-([4-[(2R)-2,3-dihydroxypropyl]phenyl]methyl)-2,6-dioxopurin-1-yl]acetamide] came in with an IC50 of 0.1 to 1 µM.

On to `CC(C)(C)C(=O)OCn1c(=O)c2c(nc(-c3ccccc3Cl)n2-c2ccc(Cl)cc2)n(C2CCCCC2)c1=O` [Compound 102], for which the IC50 is less than 0.1 µM.

`CC(=O)N1CCC(Cn2c(=O)n(C)c(=O)c3c2nc(-c2ccccc2Cl)n3-c2ccc(Cl)cc2)CC1` [Compound 107, 3-[(1-acetylpiperidin-4-yl)methyl]-8-(2-chlorophenyl)-7-(4-chlorophenyl)-1-methylpurine-2,6-dione] came in with an IC50 of less than 0.1 µM.
